The test system of data set [1] is Toronto 2 SARS CoV-1. The data set is described as follows: organism not typed. The format is cell-based. The conditions noted are these: Vero C1008, 72 h, read-out: SARS-1 EC50 (μM) VeroE6.
The test system of data set [2] is USA_WA1/2020 SARS CoV-2. The data set is described as follows: microbe, parasite or virus in culture. It is filed as cell-based. The note with it: Severe acute respiratory syndrome coronavirus 2, Vero C1008, 72 h, read-out: SARS-2 EC50 (μM) VeroE6.
Data set [3] is described as follows: in vitro. The conditions noted are these: African green monkey.

Turning to `O=C(Nc1ccc(N2CCCS2(=O)=O)cc1)c1cccc(C#Cc2ccccn2)c1` [Compound 74, N-(4-(1,1-dioxidoisothiazolidin-2-yl)phenyl)-3-(pyridin-2-ylethynyl)benzamide], the values for the concentration giving a half-maximal response (EC50) in data set [1] and in data set [2] were 0.91 µM and more than 30 µM, respectively. The compound further showed a CC50 in data set [3] of more than 30 µM.
On to `O=C(Nc1cccc(C#Cc2ccccn2)c1)c1ccc(N2CCCCCC2=O)cc1` [Compound 25, 4-(2-Oxoazepan-1-yl)-N-(3-(pyridin-2-ylethynyl)phenyl)benzamide], for which the EC50 (in general, the concentration that produces a half-maximal response) came out at 0.52 µM in data set [1] and 1.09 µM in data set [2]. In addition, the CC50 in data set [3] is more than 30 µM.
Take `O=C(Nc1cccc(C#Cc2ccccn2)c1)c1ccc(C(=O)NC2CCCC2)cc1` [Compound 39, N^1-cyclopentyl-N^4-(3-(pyridin-2-ylethynyl)phenyl)terephthalamide]: the EC50 amounted to 0.53 µM in data set [1] and 1 µM in data set [2]. This compound yielded a CC50 in data set [3] of more than 40 µM.
Regarding `O=C(Nc1cccc(C#Cc2ccccn2)c1)c1ccc(N2CCN(C3CCC3)CC2=O)cc1` [Compound 32, 4-(4-Cyclobutyl-2-oxopiperazin-1-yl)-N-(3-(pyridin-2-ylethynyl)phenyl)benzamide], the concentration giving a half-maximal response (EC50) in data set [1] turned out to be 6.08 µM; in data set [2] it was 5.02 µM. The same compound registered a CC50 in data set [3] of 23.1 µM.
Regarding `COC(=O)c1cccc(NC(=O)c2cccc(C#Cc3ccccn3)c2)c1` [Compound 64, Methyl 3-(3-(pyridin-2-ylethynyl)benzamido)benzoate], the EC50 in data set [1] is 4.19 µM; in data set [2] it was more than 30 µM. The compound also gave a CC50 in data set [3] of 21.7 µM.
For `O=C(Nc1cccc(C#Cc2ccccn2)c1)c1ccc(C(=O)NC2CCC2)cc1` [Compound 38, N^1-cyclobutyl-N^4-(3-(pyridin-2-ylethynyl)phenyl)terephthalamide], in that order: 0.75 µM, 1.64 µM and more than 30 µM.
In the case of `O=C(Nc1cccc(C#Cc2ccccn2)c1)c1ccc(NC(=O)C(F)(F)F)cc1` [Compound 10, N-(3-(Pyridin-2-ylethynyl)phenyl)-4-(2,2,2-trifluoroacetamido)benzamide], the EC50 in data set [1] was 4.89 µM; in data set [2], 6.52 µM. Also, the CC50 in data set [3] is more than 30 µM.
With `O=C(Nc1ccc(C(=O)NC2CCCC2)cc1)c1cccc(C#Cc2ccccn2)c1` [Compound 62, N-(4-(cyclopentylcarbamoyl)phenyl)-3-(pyridin-2-ylethynyl)benzamide], the results for the EC50 in data set [1] and in data set [2] were more than 30 µM and 0.48 µM, respectively. The CC50 in data set [3] is more than 30 µM.
Turning to `Nc1cc(C#Cc2ccccn2)cc(NC(=O)c2ccc(N3CCCCC3=O)cc2)c1` [Compound 52, N-(3-Amino-5-(pyridin-2-ylethynyl)phenyl)-4-(2-oxopiperidin-1-yl)benzamide], the concentration for a half-maximal effect (EC50) in data set [1] and in data set [2] was 26 µM in each case. For the same compound, in data set [3], the CC50 was more than 30 µM.
For the compound `O=C(Nc1cccc(C#Cc2ccccn2)c1)c1ccc(N2CCCNC2=O)cc1` [Compound 15, 4-(2-Oxotetrahydropyrimidin-1(2H)-yl)-N-(3-(pyridin-2-ylethynyl)phenyl)benzamide], the figures for the EC50 in data set [1] and in data set [2] were 9.71 µM and 7.81 µM, respectively. Besides, the CC50 in data set [3] was more than 30 µM.
`CCOC(=O)Nc1ccc(C(=O)Nc2cccc(C#Cc3ccccn3)c2)cc1` [Compound 11, Ethyl (4-((3-(pyridin-2-ylethynyl)phenyl)carbamoyl)phenyl)carbamate]: the values for the 50% effective concentration (EC50) in data set [1] and in data set [2] were 0.84 µM and 1.07 µM, respectively. The same compound gave a CC50 in data set [3] of more than 30 µM.
`COc1cc(C#Cc2ccccn2)cc(C(=O)Nc2ccc(N3CCCCC3=O)cc2)c1` [Compound 72, 3-methoxy-N-(4-(2-oxopiperidin-1-yl)phenyl)-5-(pyridin-2-ylethynyl)benzamide]: the figures for the EC50 in data set [1] and in data set [2] were 0.24 µM and 0.51 µM, respectively. Further, the CC50 in data set [3] is 26.6 µM.
As for `COc1cc(C#Cc2ccccn2)cc(NC(=O)c2ccc(N3CCCCS3(=O)=O)cc2)c1` [Compound 76], the results for the EC50 in data set [1] and in data set [2] were 0.172 µM and 0.189 µM, respectively. The same compound returned a CC50 in data set [3] of more than 30 µM.
For `O=C(Nc1ccc(C(O)(C(F)(F)F)C(F)(F)F)cc1)c1cccc(C#Cc2ccccn2)c1` [Compound 68, N-(4-(1,1,1,3,3,3-hexafluoro-2-hydroxypropan-2-yl)phenyl)-3-(pyridin-2-ylethynyl)benzamide], in that order: 0.52 µM, 27.7 µM and 9.72 µM.
On to `COC(=O)c1ccc(NC(=O)c2cccc(C#Cc3ccccn3)c2)cc1` [Compound 63, Methyl 4-(3-(pyridin-2-ylethynyl)benzamido)benzoate], for which the concentration for a half-maximal effect (EC50) in data set [1] is 0.43 µM; in data set [2] it was 0.55 µM. Further, in data set [3], the CC50 is more than 30 µM.
Consider `CC(C)(C)c1ccc(NC(=O)c2cccc(C#Cc3ccccn3)c2)cc1` [Compound 67, N-(4-(tert-butyl)phenyl)-3-(pyridin-2-ylethynyl)benzamide], for which the EC50 in data set [1] turned out to be 3.51 µM; in data set [2] it was 4.25 µM. The compound also yielded a CC50 in data set [3] of more than 30 µM.
`O=C(Nc1cccc(C#Cc2ccccn2)c1)c1ccc(-c2nnco2)cc1` [Compound 41, 4-(1,3,4-Oxadiazol-2-yl)-N-(3-(pyridin-2-ylethynyl)phenyl)benzamide]: the concentration giving a half-maximal response (EC50) was found to be 0.93 µM in data set [1] and 1.54 µM in data set [2]. Moreover, the CC50 in data set [3] is more than 30 µM.
On to `O=C(Nc1ccc(C(=O)Nc2cccc(C#Cc3ccccn3)c2)cc1)c1ccc(O)cc1` [Compound 28, 4-Hydroxy-N-(4-((3-(pyridin-2-ylethynyl)phenyl)carbamoyl)phenyl)benzamide], for which the EC50 is 17.1 µM in data set [1] and more than 30 µM in data set [2]. The compound further registered a CC50 in data set [3] of more than 30 µM.
Consider `Cc1nc2ccc(C(=O)Nc3cccc(C#Cc4ccccn4)c3)cc2o1` [Compound 34, 2-Methyl-N-(3-(pyridin-2-ylethynyl)phenyl)benzo[d]oxazole-6-carboxamide], for which the EC50 turned out to be 2.01 µM in data set [1] and 2.11 µM in data set [2]. For the same compound, the CC50 in data set [3] amounted to 26.1 µM.
For `O=C(Nc1cccc(C#Cc2ccccn2)c1)c1ccc(N2CCN(CC3CCC3)CC2=O)cc1` [Compound 33, 4-(4-(Cyclobutylmethyl)-2-oxopiperazin-1-yl)-N-(3-(pyridin-2-ylethynyl)phenyl)benzamide], in that order: 4.62 µM, more than 30 µM and more than 30 µM.
In the case of `O=C(Nc1cccc(C#Cc2ccccn2)c1)c1ccc(N2CCCC3(CCC3)C2=O)cc1` [Compound 36, 4-(5-Oxo-6-Azaspiro[3.5]nonan-6-yl)-N-(3-(pyridin-2-ylethynyl)phenyl)benzamide], the concentration for a half-maximal effect (EC50) came out at 0.35 µM in data set [1] and 0.49 µM in data set [2]. The compound also gave a CC50 in data set [3] of 15.3 µM.
For `COc1ccc(C(=O)Nc2ccc(C(=O)Nc3cccc(C#Cc4ccccn4)c3)cc2)cc1` [Compound 27, 4-Methoxy-N-(4-((3-(pyridin-2-ylethynyl)phenyl)carbamoyl)phenyl)benzamide], the EC50 in data set [1] and in data set [2] was more than 30 µM each time. The compound also displayed a CC50 in data set [3] of more than 30 µM.
Turning to `COc1cc(C#Cc2ccccn2)cc(C(=O)Nc2ccc(N3CCCCS3(=O)=O)cc2)c1` [Compound 75, N-(4-(1,1-dioxido-1,2-thiazinan-2-yl)phenyl)-3-methoxy-5-(pyridin-2-ylethynyl)benzamide], the values for the EC50 in data set [1] and in data set [2] were 0.065 µM and 0.128 µM, respectively. In addition, in data set [3], the CC50 is more than 30 µM.
As for `CN(C)c1ccc(C(=O)Nc2cccc(C#Cc3ccccn3)c2)cc1` [Compound 42, 4-(Dimethylamino)-N-(3-(pyridin-2-ylethynyl)phenyl)benzamide], the EC50 in data set [1] came out at 1.57 µM; in data set [2], 6.52 µM. Moreover, the CC50 in data set [3] is more than 30 µM.
As for `O=C(Nc1cccc(C#Cc2ccccn2)c1)c1ccc(N2CCC2=O)cc1` [Compound 20, 4-(2-oxoazetidin-1-yl)-N-(3-(pyridin-2-ylethynyl)phenyl)benzamide], the EC50 in data set [1] is 2.12 µM; in data set [2] it was 11.7 µM. In data set [3], this compound gave a CC50 of more than 30 µM.
On to `Cc1cc(C#Cc2ccccn2)nc(NC(=O)c2ccc3c(c2)CCC(=O)N3)c1` [Compound 47, N-(4-Methyl-6-(pyridin-2-ylethynyl)pyridin-2-yl)-2-oxo-1,2,3,4-tetrahydroquinoline-6-carboxamide], for which the concentration for a half-maximal effect (EC50) in data set [1] amounted to 5.51 µM; in data set [2], 6.29 µM. The compound further yielded a CC50 in data set [3] of more than 30 µM.
Turning to `CC(=O)Nc1ccc(NC(=O)c2cccc(C#Cc3ccccn3)c2)cc1` [Compound 55, N-(4-acetamidophenyl)-3-(pyridin-2-ylethynyl)benzamide], the figures for the EC50 in data set [1] and in data set [2] were 2.82 µM and 4.18 µM, respectively. The same compound displayed a CC50 in data set [3] of more than 30 µM.
Turning to `CN1CCN(c2ccc(C(=O)Nc3cccc(C#Cc4ccccn4)c3)cc2)C1=O` [Compound 16, 4-(3-Methyl-2-oxoimidazolidin-1-yl)-N-(3-(pyridin-2-ylethynyl)phenyl)benzamide], the figures for the 50% effective concentration (EC50) in data set [1] and in data set [2] were 0.75 µM and 1.28 µM, respectively. In data set [3], the CC50 was more than 30 µM.
For `O=C(Nc1ccc(N2CCC2=O)cc1)c1cccc(C#Cc2ccccn2)c1` [Compound 57, N-(4-(2-oxoazetidin-1-yl)phenyl)-3-(pyridin-2-ylethynyl)benzamide], the EC50 in data set [1] is 1.74 µM; in data set [2], 4.01 µM. The CC50 in data set [3] was more than 30 µM.
On to `CCCC(=O)Nc1ccc(C(=O)Nc2cccc(C#Cc3ccccn3)c2)cc1` [Compound 7, 4-Butyramido-N-(3-(pyridin-2-ylethynyl)phenyl)benzamide], for which the EC50 in data set [1] came to 0.16 µM; in data set [2], 0.26 µM. In addition, the CC50 in data set [3] was more than 30 µM.
Take `O=C(Nc1cccc(C#Cc2ccccn2)c1)c1ccc(N2CC3(CCC3)C2=O)cc1` [Compound 35, 4-(1-Oxo-2-azaspiro[3.3]heptan-2-yl)-N-(3-(pyridin-2-ylethynyl)phenyl)benzamide]: the figures for the EC50 in data set [1] and in data set [2] were 0.43 µM and 1.64 µM, respectively. In addition, the CC50 in data set [3] is more than 30 µM.

Source of the values: US11905306B2 (priority 2021, dated 2024).
